This test deals with 4 PI3K isoforms (Human recombinant GST-PI3K). Put plainly: PI3K scintillation proximity assay, best IC50 obtained with the four isoforms (alpha, beta, delta, gamma). In kind it is biochemical. The following applies: best IC50 obtained with the four isoforms of PI3K; read-out: Best potency measured on the 4 PI3K isoforms.
For the molecule `O=C(c1nn(CC2CCOCC2)c2c1CS(=O)(=O)c1ccccc1-2)N1CCOCC1` [Example 52, 3-(morpholin-4-ylcarbonyl)-1-(tetrahydro-2H-pyran-4-ylmethyl)-1,4-dihydrothiochromeno[4,3-c]pyrazole 5,5-dioxide], the IC50 was 789 nM.
With `COCCN(CCOC)CCN1CCC[C@H](n2nc(C(=O)N3CCOCC3)c3c2-c2ccccc2S(=O)(=O)C3)C1` (stereo in doubt) [Example 448, 2-methoxy-N-(2-methoxyethyl)-N-(2-{3-[3-(morpholin-4-ylcarbonyl)-5,5-dioxidothiochromeno[4,3-c]pyrazol-1(4H)-yl]piperidin-1-yl}ethyl)ethanamine], the IC50 turned out to be 113 nM.
With `O=C(c1ccoc1)N1CCC[C@H](n2nc(C(=O)N3CCOCC3)c3c2-c2ccccc2S(=O)(=O)C3)C1` [Example 396], the IC50 was determined as 750 nM.
For the molecule `O=C(c1nn(C2CCCN(CCO)C2)c2c1CS(=O)(=O)c1ccccc1-2)N1CCOCC1` (stereo not shown) [Example 134, 2-{3-[3-(Morpholin-4-ylcarbonyl)-5,5-dioxidothiochromeno[4,3-c]pyrazol-1 (4H)-yl]piperidin-1-yl}ethanol], the IC50 came out at 815 nM.
For `CC1CCC(n2nc(C(=O)N3CCOCC3)c3c2-c2ccccc2S(=O)(=O)C3)CC1` (stereo not shown) [Example 127, 1-(4-Methylcyclohexyl)-3-(morpholin-4-ylcarbonyl)-1,4-dihydrothiochromeno[4,3-c]pyrazole 5,5-dioxide] the value was 426 nM.
For `CN1CCC(Cn2nc(C(=O)N3CCOCC3)c3c2-c2ccccc2S(=O)(=O)C3)CC1` [Example 208, 1-[(1-Methylpiperidin-4-yl)methyl]-3-(morpholin-4-ylcarbonyl)-1,4-dihydrothiochromeno[4,3-c]pyrazole 5,5-dioxide] the value was 2650 nM; for `O=C(c1nn(-c2ccc(CN3CCOCC3)cc2)c2c1CS(=O)(=O)c1ccc(F)cc1-2)N1CCOCC1` [Example 392, 8-Fluoro-3-(morpholin-4-ylcarbonyl)-1-[4-(morpholin-4-ylmethyl)phenyl]-1,4-dihydrothiochromeno[4,3-c]pyrazole 5,5-dioxide], 555 nM.
For `O=C(c1nn([C@H]2CCCN(CCN3CC(F)(F)C3)C2)c2c1CS(=O)(=O)c1c(F)cccc1-2)N1CCOCC1` (stereo in doubt) [Example 464, 1-{1-[2-(3,3-difluoroazetidin-1-yl)ethyl]piperidin-3-yl}-6-fluoro-3-(morpholin-4-ylcarbonyl)-1,4-dihydrothiochromeno[4,3-c]pyrazole 5,5-dioxide] the value was 22 nM.
Turning to `CN1CCCC(n2nc(C(=O)N3CCOCC3)c3c2-c2ccccc2S(=O)(=O)C3)C1` (stereo not shown) [Example 77, 1-(1-Methylpiperidin-3-yl)-3-(morpholin-4-ylcarbonyl)-1,4-dihydrothiochromeno[4,3-c]pyrazole 5,5-dioxide], the IC50 is 772 nM.
With `O=C(c1nn([C@@H]2CCCN(CCn3ccnc3)C2)c2c1CS(=O)(=O)c1ccccc1-2)N1CCOCC1` (single isomer, unassigned) [Example 411, 1-{1-[2-(1H-imidazol-1-yl)ethyl]piperidin-3-yl}-3-(morpholin-4-ylcarbonyl)-1,4-dihydrothiochromeno[4,3-c]pyrazole 5,5-dioxide] the figure was 444 nM.
With `O=C(c1nn([C@H]2CCCN(CCN3CCC(F)C3)C2)c2c1CS(=O)(=O)c1ccccc1-2)N1CCOCC1` (single isomer, unassigned) [Example 367] the figure was 32 nM.
`O=C(c1nn(C2CCCN(C3CCOCC3)C2)c2c1CS(=O)(=O)c1ccccc1-2)N1CCOCC1` (stereo not shown) [Example 293, 3-(Morpholin-4-ylcarbonyl)-1-[1-(tetrahydro-2H-pyran-4-yl)piperidin-3-yl]-1,4-dihydrothiochromeno[4,3-c]pyrazole 5,5-dioxide]: the IC50 was found to be 254 nM.
For `O=C(c1nn(-c2ccc(Br)cc2)c2c1CS(=O)(=O)c1ccccc1-2)N1CCOCC1` [Example 27, 1-(4-bromophenyl)-3-(morpholin-4-ylcarbonyl)-1,4-dihydrothiochromeno[4,3-c]pyrazole 5,5-dioxide], the IC50 is 1120 nM.

The values are drawn from US9073940B2, “Tricyclic pyrazol amine derivatives” (MERCK SERONO SA, priority 2009, dated 2015).
